Results on three compounds are retold here after patent US20240092814A1, “WATER-SOLUBLE Pd(II) COMPLEX, METHOD FOR SYNTHESIZING SAME, AND USE THEREOF AS [sequence] PRECURSOR” (priority 2022, published 2024).

For data set [1] the following is noted: background statement; cited from earlier work.
A short description of data set [2]: Solid-state stability and thermal decomposition (TG-DTA). It is filed as physicochemical. On the procedure:
(3) Its solid state is stable at room temperature. In the simulated air atmosphere and nitrogen, a thermal decomposition reaction can occur at a lower temperature (<190° C.) to generate palladium metal (see FIG. 2 and FIG. 3), which can reduce energy consumption in the thermal reduction or calcination process of catalyst preparation. Moreover, the decomposition products are Pd, CO2, N2 and H2O, facilitating clean production and environmental protection.
FIG. 2: a thermogravimetric curve (TG-DTA) of (NH4)2[Pd(NO2)2(C2O4)]·2H2O of the present disclosure in simulated air.
FIG. 3: a thermogravimetric curve (TG-DTA) of (NH4)2[Pd(NO2)2(C2O4)]·2H2O of the present disclosure in nitrogen.

Data set [3] can be described thus: Solubility in pure water at room temperature. It is filed as physicochemical. The text has this: (§1) The pH of the solution at a concentration of 100 g/L is about 4-5.
Data set [4] can be described thus: Stability of aqueous solution (colour change, precipitation). It is filed as physicochemical.
Description: as §1

The nature of data set [5]: pH of aqueous solution. It counts as physicochemical. As to conditions: concentration of 100 g/L.
Description: as §1

Where two headings read alike, the source gives them in different places.

`O=[N+]([O-])[O-].O=[N+]([O-])[O-].[Pd+2]` [Palladium nitrate solution, palladium nitrate]: in data set [1], the stability in water result is on record as “unstable in water”.

`O.O.O=C([O-])C(=O)[O-].O=C([O-])C(=O)[O-].[NH4+].[NH4+].[Pd+2]` [(NH4)2[Pd(C2O4)2]·2H2O, ammonium bis(oxalato)palladium(II) dihydrate, reference compound]: in data set [2] (room temperature, self-redox reaction producing palladium metal), the stability result is recorded as “unstable”.

As to `O=C1[O][Pd]([N+](=O)[O-])([N+](=O)[O-])[O]C1=O` [Pd-X6, ammonium dinitrooxalato palladium(II)], in data set [3], the solubility was more than 400 mg/mL and the “solubility in pure water, equivalent Pd” value is listed as more than 120 g Pd/L. The stability in water entry in data set [4] (60° C. for 5 hours) was “color of the solution does not change and no precipitation is observed”. The stability in water entry in data set [4] (room temperature for 2 days) was “color of the solution does not change and no precipitation is observed”. Besides, the “pH of the solution” value in data set [5] is listed as 4-5. The solid state stability entry in data set [2] (room temperature) is “stable”. The “thermal decomposition temperature to palladium metal” value in data set [2] (simulated air atmosphere and nitrogen) is less than 190 °C.
